Laboratory results as given in US11345712B2, “Protein-targeting compounds and pharmaceutical compositions thereof, and their therapeutic applications” (BioTheryX, Inc., priority 2019, dated 2022).

What follows are molecules tested on MOLM-13 cells (assay: MOLM-13 cell viability assay (CellTiter-Glo)). Conditions: Homo sapiens, MOLM-13, 72 h, 3 days, concentration of 1 μM, read-out: Antiproliferative Activity (inhibition, MOLM-13 cell viability).
Assay type: cell-based
Summary of the method: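 MOLM-13 AML cells in RPMI 1640 with 10% FBS, seeded at 2,500 cells/well and exposed to compound or DMSO for 3 days at 37° C, 5% CO2. Viability read as CellTiter-Glo luminescence after 10 min shaking.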
For `Cc1ccc(NCCCNCc2cc3c(s2)C(=O)N(C2CCC(=O)NC2=O)C3)cc1Cl` (stereo not shown) [II-65, 3-(2-(((3-((3-chloro-4-methylphenyl)amino)propyl)amino)methyl)-6-oxo-4,6-dihydro-5H-thieno[2,3-c]pyrrol-5-yl)piperidine-2,6-dione], the cytotoxicity at 1 µM was < 25%.
In the case of `C=C(C(=O)NCc1scc2c1CN(C1CCC(=O)NC1=O)C2=O)c1ccc(C)c(Cl)c1` (stereo not shown) [II-67, 2-(3-chloro-4-methylphenyl)-N-((5-(2,6-dioxopiperidin-3-yl)-4-oxo-5,6-dihydro-4H-thieno[3,4-c]pyrrol-1-yl)methyl)propenamide], the cytotoxicity at 1 µM is reported as < 25%.
`Cc1ccc(CC(=O)NCc2scc3c2CN(C2CCC(=O)NC2=O)C3=O)cc1N(C)C` (stereo not shown) [II-68, 2-(3-(dimethylamino)-4-methylphenyl)-N-((5-(2,6-dioxopiperidin-3-yl)-4-oxo-5,6-dihydro-4H-thieno[3,4-c]pyrrol-1-yl)methyl)acetamide] was tested, and the cytotoxicity at 1 µM was 25 to 50%.
In the case of `Cc1ccc(CS(=O)(=O)NCc2scc3c2CN(C2CCC(=O)NC2=O)C3=O)cc1Cl` (stereo not shown) [II-69, 1-(3-chloro-4-methylphenyl)-N-((5-(2,6-dioxopiperidin-3-yl)-4-oxo-5,6-dihydro-4H-thieno[3,4-c]pyrrol-1-yl)methyl)methanesulfonamide], the cytotoxicity at 1 µM is reported as 50 to 80%.
`CC(C)c1cccc(NC(=O)NCc2cc3c(s2)C(=O)N(C2CCC(=O)NC2=O)C3)c1` (stereo not shown) [II-70, 1-((5-(2,6-dioxopiperidin-3-yl)-6-oxo-5,6-dihydro-4H-thieno[2,3-c]pyrrol-2-yl)methyl)-3-(3-isopropylphenyl)urea] was tested, and the cytotoxicity at 1 µM was > 80%.
With `CCN(CC)c1cccc(NC(=O)NCc2cc3c(s2)C(=O)N(C2CCC(=O)NC2=O)C3)c1` (stereo not shown) [II-71, 1-(3-(diethylamino)phenyl)-3-((5-(2,6-dioxopiperidin-3-yl)-6-oxo-5,6-dihydro-4H-thieno[2,3-c]pyrrol-2-yl)methyl)urea] the cytotoxicity at 1 µM was > 80%.
With `Cc1ccc(NC(=O)NCc2cc3c(s2)C(=O)N(C2CC(=O)NC2=O)C3)cc1Cl` (stereo not shown) [II-72, 1-(3-chloro-4-methylphenyl)-3-((5-(2,5-dioxopyrrolidin-3-yl)-6-oxo-5,6-dihydro-4H-thieno[2,3-c]pyrrol-2-yl)methyl)urea] the cytotoxicity at 1 µM was 25 to 50%.
`Cc1ccc(NC(=O)NCc2cc3c(s2)C(=O)N(C2(C)CCC(=O)NC2=O)C3)cc1Cl` (stereo not shown) [II-73, 1-(3-chloro-4-methylphenyl)-3-((5-(3-methyl-2,6-dioxopiperidin-3-yl)-6-oxo-5,6-dihydro-4H-thieno[2,3-c]pyrrol-2-yl)methyl)urea] was tested, and the cytotoxicity at 1 µM was < 25%.
In the case of `CC(C)c1ccc(CC(=O)NCc2scc3c2CN(C2CCC(=O)NC2=O)C3=O)cc1` (stereo not shown) [II-74, N-((5-(2,6-dioxopiperidin-3-yl)-4-oxo-5,6-dihydro-4H-thieno[3,4-c]pyrrol-1-yl)methyl)-2-(4-isopropylphenyl)acetamide], the cytotoxicity at 1 µM is reported as < 25%.
For `CC1CCC(CC(=O)NCc2scc3c2CN(C2CCC(=O)NC2=O)C3=O)CC1` (stereo not shown) [II-75, N-((5-(2,6-dioxopiperidin-3-yl)-4-oxo-5,6-dihydro-4H-thieno[3,4-c]pyrrol-1-yl)methyl)-2-(4-methylcyclohexyl)acetamide], the cytotoxicity at 1 µM was < 25%.
In the case of `O=C(Cc1cccc(N2CCCCC2)c1)NCc1scc2c1CN(C1CCC(=O)NC1=O)C2=O` (stereo not shown) [II-76, N-((5-(2,6-dioxopiperidin-3-yl)-4-oxo-5,6-dihydro-4H-thieno[3,4-c]pyrrol-1-yl)methyl)-2-(3-(piperidin-1-yl)phenyl)acetamide], the cytotoxicity at 1 µM is reported as > 80%.
In the case of `CN(C)CCOc1cccc(CC(=O)NCc2scc3c2CN(C2CCC(=O)NC2=O)C3=O)c1` (stereo not shown) [II-77, 2-(3-(2-(dimethylamino)ethoxy)phenyl)-N-((5-(2,6-dioxopiperidin-3-yl)-4-oxo-5,6-dihydro-4H-thieno[3,4-c]pyrrol-1-yl)methyl)acetamide], the cytotoxicity at 1 µM is reported as < 25%.
In the case of `O=C(CN1CCOCC1)NCc1scc2c1CN(C1CCC(=O)NC1=O)C2=O` (stereo not shown) [II-78, N-((5-(2,6-dioxopiperidin-3-yl)-4-oxo-5,6-dihydro-4H-thieno[3,4-c]pyrrol-1-yl)methyl)-2-morpholinoacetamide], the cytotoxicity at 1 µM is reported as < 25%.
With `Cc1ccc(CC(=O)NCc2cc3c(s2)CN(C2CCC(=O)NC2=O)C3=O)cc1Cl` (stereo not shown) [II-79, 2-(3-chloro-4-methylphenyl)-N-((5-(2,6-dioxopiperidin-3-yl)-4-oxo-5,6-dihydro-4H-thieno[2,3-c]pyrrol-2-yl)methyl)acetamide] the cytotoxicity at 1 µM was < 25%.
With `CN(C)CCOc1ccc(CC(=O)NCc2scc3c2CN(C2CCC(=O)NC2=O)C3=O)cc1` (stereo not shown) [II-80, 2-(4-(2-(dimethylamino)ethoxy)phenyl)-N-((5-(2,6-dioxopiperidin-3-yl)-4-oxo-5,6-dihydro-4H-thieno[3,4-c]pyrrol-1-yl)methyl)acetamide] the cytotoxicity at 1 µM was < 25%.
`Cc1ccc(NC(=O)NCc2cc3c(s2)C(=O)N(C2CCC(=O)N(COC(=O)[C@H](N)C(C)C)C2=O)C3)cc1N(C)C` (stereo partly drawn) [II-81, (3-(2-((3-(3-(dimethylamino)-4-methylphenyl)ureido)methyl)-6-oxo-4,6-dihydro-5H-thieno[2,3-c]pyrrol-5-yl)-2,6-dioxopiperidin-1-yl)methyl D-valinate] was tested, and the cytotoxicity at 1 µM was > 80%.
For `Cc1ccc(NC(=O)NCc2cc3c(s2)C(=O)N(C2CCC(=O)N(COC(=O)[C@H](N)C(C)C)C2=O)C3)cc1Cl` (stereo partly drawn) [II-82, (3-(2-((3-(3-chloro-4-methylphenyl)ureido)methyl)-6-oxo-4,6-dihydro-5H-thieno[2,3-c]pyrrol-5-yl)-2,6-dioxopiperidin-1-yl)methyl D-valinate], the cytotoxicity at 1 µM was > 80%.
For `O=C(Cc1ccc(N2CCOCC2)cc1)NCc1scc2c1CN(C1CCC(=O)NC1=O)C2=O` (stereo not shown) [II-83, N-((5-(2,6-dioxopiperidin-3-yl)-4-oxo-5,6-dihydro-4H-thieno[3,4-c]pyrrol-1-yl)methyl)-2-(4-morpholinophenyl)acetamide], the cytotoxicity at 1 µM was < 25%.
In the case of `CC(C)(C)c1ccc(CCCC(=O)NCc2scc3c2CN(C2CCC(=O)NC2=O)C3=O)cc1` (stereo not shown) [II-84, 4-(4-(tert-butyl)phenyl)-N-((5-(2,6-dioxopiperidin-3-yl)-4-oxo-5,6-dihydro-4H-thieno[3,4-c]pyrrol-1-yl)methyl)butanamide], the cytotoxicity at 1 µM is reported as < 25%.
`CN(C)c1ccc(CCCC(=O)NCc2scc3c2CN(C2CCC(=O)NC2=O)C3=O)cc1` (stereo not shown) [II-85, 4-(4-(dimethylamino)phenyl)-N-((5-(2,6-dioxopiperidin-3-yl)-4-oxo-5,6-dihydro-4H-thieno[3,4-c]pyrrol-1-yl)methyl)butanamide] was tested, and the cytotoxicity at 1 µM was < 25%.
In the case of `CC(CCc1ccc(C(C)(C)C)cc1)C(=O)NCc1scc2c1CN(C1CCC(=O)NC1=O)C2=O` (stereo not shown) [II-86, 4-(4-(tert-butyl)phenyl)-N-((5-(2,6-dioxopiperidin-3-yl)-4-oxo-5,6-dihydro-4H-thieno[3,4-c]pyrrol-1-yl)methyl)-2-methylbutanamide], the cytotoxicity at 1 µM is reported as < 25%.
For `CCC(C(=O)NCc1scc2c1CN(C1CCC(=O)NC1=O)C2=O)c1ccc(C)c(Cl)c1` (stereo not shown) [II-87, 2-(3-chloro-4-methylphenyl)-N-((5-(2,6-dioxopiperidin-3-yl)-4-oxo-5,6-dihydro-4H-thieno[3,4-c]pyrrol-1-yl)methyl)butanamide], the cytotoxicity at 1 µM was < 25%.
`Cc1ccc(C(N)C(=O)NCc2scc3c2CN(C2CCC(=O)NC2=O)C3=O)cc1` (stereo not shown) [II-88, 2-amino-N-((5-(2,6-dioxopiperidin-3-yl)-4-oxo-5,6-dihydro-4H-thieno[3,4-c]pyrrol-1-yl)methyl)-2-(p-tolyl)acetamide] was tested, and the cytotoxicity at 1 µM was < 25%.
For `NC(C(=O)NCc1scc2c1CN(C1CCC(=O)NC1=O)C2=O)c1cccc(Cl)c1` (stereo not shown) [II-89, 2-amino-2-(3-chlorophenyl)-N-((5-(2,6-dioxopiperidin-3-yl)-4-oxo-5,6-dihydro-4H-thieno[3,4-c]pyrrol-1-yl)methyl)acetamide], the cytotoxicity at 1 µM was < 25%.
`Cc1ccc(NC(=O)NCc2cc3c(s2)C(=O)N([C@H]2CCC(=O)NC2=O)C3)cc1Cl` [II-90, (S)-1-(3-chloro-4-methylphenyl)-3-((5-(2,6-dioxopiperidin-3-yl)-6-oxo-5,6-dihydro-4H-thieno[2,3-c]pyrrol-2-yl)methyl)urea] was tested, and the cytotoxicity at 1 µM was > 80%.
For `Cc1ccc(NC(=O)NCc2cc3c(s2)C(=O)N([C@@H]2CCC(=O)NC2=O)C3)cc1Cl` [II-91, (R)-1-(3-chloro-4-methylphenyl)-3-((5-(2,6-dioxopiperidin-3-yl)-6-oxo-5,6-dihydro-4H-thieno[2,3-c]pyrrol-2-yl)methyl)urea], the cytotoxicity at 1 µM was > 80%.
`O=C(Cc1ccc(N2CCCC2)cc1)NCc1scc2c1CN(C1CCC(=O)NC1=O)C2=O` (stereo not shown) [II-93, N-((5-(2,6-dioxopiperidin-3-yl)-4-oxo-5,6-dihydro-4H-thieno[3,4-c]pyrrol-1-yl)methyl)-2-(4-(pyrrolidin-1-yl)phenyl)acetamide] was tested, and the cytotoxicity at 1 µM was < 25%.
For `CC(C)C(C(=O)NCc1scc2c1CN(C1CCC(=O)NC1=O)C2=O)c1ccc(C(C)(C)C)cc1` (stereo not shown) [II-94, 2-(4-(tert-butyl)phenyl)-N-((5-(2,6-dioxopiperidin-3-yl)-4-oxo-5,6-dihydro-4H-thieno[3,4-c]pyrrol-1-yl)methyl)-3-methylbutanamide], the cytotoxicity at 1 µM was < 25%.
`Cc1ccc(C(C(=O)NCc2scc3c2CN(C2CCC(=O)NC2=O)C3=O)C(C)C)cc1Cl` (stereo not shown) [II-95, 2-(3-chloro-4-methylphenyl)-N-((5-(2,6-dioxopiperidin-3-yl)-4-oxo-5,6-dihydro-4H-thieno[3,4-c]pyrrol-1-yl)methyl)-3-methylbutanamide] showed a cytotoxicity at 1 µM of 25 to 50%.
In the case of `CCc1ccc(NC(=O)NCc2cc3c(s2)C(=O)N(C2CCC(=O)NC2=O)C3)cc1N(C)C` (stereo not shown) [II-96, 1-(3-(dimethylamino)-4-ethylphenyl)-3-((5-(2,6-dioxopiperidin-3-yl)-6-oxo-5,6-dihydro-4H-thieno[2,3-c]pyrrol-2-yl)methyl)urea], the cytotoxicity at 1 µM is reported as > 80%.
`CCN(CC)c1cc(NC(=O)NCc2cc3c(s2)C(=O)N(C2CCC(=O)NC2=O)C3)ccc1F` (stereo not shown) [II-97, 1-(3-(diethylamino)-4-fluorophenyl)-3-((5-(2,6-dioxopiperidin-3-yl)-6-oxo-5,6-dihydro-4H-thieno[2,3-c]pyrrol-2-yl)methyl)urea] was tested, and the cytotoxicity at 1 µM was > 80%.
